# Data from PubChem BioAssay (NCI).
#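 Five concentrations, 48 hours, 96-well plates. GI50 = concentration required for 50% inhibition of growth. TGI marks complete inhibition of growth.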
# Tests used:
# Test in all cases: NCI tumour cell line growth inhibition, 48 h
# [1] = test system: HOP-92 NSCLC
# [2] = test system: HOP-62 NSCLC
# [3] = test system: UACC-257 melanoma
# [4] = test system: SK-OV-3 ovarian
# [5] = test system: CAKI-1 renal
# [6] = test system: SNB-19 CNS
# [7] = test system: A498 renal
# [8] = test system: MOLT-4 leukemia
# [9] = test system: UACC-62 melanoma
# [10] = test system: OVCAR-4 ovarian
SMILES,TGI [1] [µM],TGI [2] [µM],TGI [3] [µM],TGI [4] [µM],TGI [5] [µM],TGI [6] [µM],TGI [7] [µM],TGI [8] [µM],TGI [9] [µM],TGI [10] [µM],GI50 [1] [µM],GI50 [2] [µM],GI50 [3] [µM],GI50 [5] [µM],GI50 [6] [µM],GI50 [10] [µM],GI50 [7] [µM],GI50 [8] [µM],GI50 [9] [µM]
CC(=O)NC1=C[C@@H]([C@H]2COC(C)(C)O2)OC1=O,> 100,> 100,> 100,> 100,> 100,> 100,> 100,> 100,> 100,,,,,,,,,,
COC(=O)N1CC2C3C4CC(C(c5ccccc5)=C4c4ccccc4)C3C21 (configuration not stated),24.5,42.5,28.9,70.2,32.8,57.5,,38.6,27,29.5,,,,,,,,,
O=C(Nc1ccc(-n2ccc3c(NC(=O)c4ccccc4)ncnc32)cc1)Nc1cccc(Cl)c1Cl,2.48,2.15,7.7,,24.9,5.84,2.04,> 50,3.29,1.91,0.847,0.983,2.15,3.84,1.44,0.878,0.752,1.71,1.02
C=C(OC1C(C)=C2C(C1OC(=O)CCCCCCC)C(C)(OC(C)=O)CC(OC(=O)CCC)C1(O)C2OC(=O)C1(C)O)/C(C)=C/C (configuration not stated),3.09,,11.9,16.9,0.0615,3.16,3.29,0.177,0.0273,0.512,,< 0.0001,0.000269,0.000475,,< 0.0001,,0.000402,
CCOC(=O)CC1(c2cccc3ccccc23)OC(=O)c2ccccc21 (configuration not stated),,,> 100,> 100,> 100,> 100,> 100,82.4,> 100,> 100,,,,,,,,,
CC/C=C(\C(=C/CC)[N+](=O)[O-])[N+](=O)[O-],45.1,> 100,32.1,> 100,37.8,> 100,,64.9,33.6,45.7,,,,,,,,,
Nc1nc(N)c2cc(NCc3ccc(Cl)c(Cl)c3)ccc2n1,1.75,3.01,3.22,,2.71,2.78,2.41,,2.7,2.61,0.348,1.63,1.71,1.37,1.46,1.34,1.16,,1.39
O=C(O)/C(Cc1ccc([N+](=O)[O-])cc1)=N\O,> 100,> 100,> 100,> 100,> 100,> 100,> 100,,> 100,> 100,,,,,,,,,
